The values below come from article PMC7749516, “Safety and nonclinical and clinical pharmacokinetics of PC945, a novel inhaled triazole antifungal agent” (Pharmacology Research & Perspectives, 2020).

For data set [1] the following is noted: cited from earlier work.
The subject of another data set is CYP3A4/5. As to the kind of experiment: CYP inhibition in pooled human liver microsomes. It is filed as in vitro ADME. The following applies: without preincubation, pooled human liver microsomes. In general terms: Microsomes from liver hold many membrane-bound enzymes, among them those of drug oxidation.

Like-named read-outs stand apart in the source and are kept apart here.

Protocol for CYP3A4/5: Microsomal reactions were terminated by adding 100 μL of cold (4°C) methanol containing appropriate internal standard. Aliquots (150 μL) of each sample were centrifuged and the supernatant was used for substrate analysis by ultra‐performance liquid chromatography with tandem mass spectrometry (UPLC‐MS/MS) on the day of incubations.
Change in substrate concentration was measured to determine the extent of CYP‐isoform inhibition. The 30‐minute preincubations were performed to determine whether there was time‐dependent inhibition of any CYP isoform (CYP1A2, 2B6, 2C8, 2C9, 2C19, 2D6, and 3A4/5). Untreated control contained only solvent, dimethyl sulfoxide (≤0.5% [v/v]).

In general, Cmax refers to the peak of the concentration-time curve. What is called IC50 is the concentration that gives 50% inhibition. In the case of `CC[C@@H]([C@H](C)O)n1ncn(-c2ccc(N3CCN(c4ccc(OC[C@@H]5CO[C@@](Cn6cncn6)(c6ccc(F)cc6F)C5)cc4)CC3)cc2)c1=O` [posaconazole, reference compound], the “Mean concentration in pulmonary alveolar cells relative to lung epithelial lining fluid and plasma” value in data set [1] (14‐day oral 400 mg twice daily, steady state) is listed as “over 30 fold”. The Cmax in data set [1] (after 200 mg three times daily oral dosing) was 830 nM. The IC50 worked out at 320 nM in the data set with CYP3A4/5 (probe midazolam, substrate midazolam) and 81 nM in the data set on CYP3A4/5 (probe testosterone, substrate testosterone).
On to `CCC(C)n1ncn(-c2ccc(N3CCN(c4ccc(OCC5COC(Cn6cncn6)(c6ccc(Cl)cc6Cl)O5)cc4)CC3)cc2)c1=O` (centres unmarked) [itraconazole], for which the maximum concentration (Cmax) in data set [1] (after 15‐day, 200 mg daily oral dosing) is 1520 nM.
